{"source": "patent US20210340572A1", "about": "“HIGH-CONTENT IMAGING OF MICROFLUIDIC DEVICES” (EMULATE, Inc., priority 2019, published 2021)", "key": {"[1]": {"assay": "Repeat-dose toxicity study of JNJ-1 in rats", "assay_type": "in vivo", "details": "rat study", "experimental": "(§1) JNJ-1, prepared in purified water, was administered once daily for 14 days to 5 male and 5 female rats at doses of 5, 25, and 125 mg/kg. In a separate study, JNJ-1, also in purified water, was administered once daily for 4 weeks to 5 male and 5 female dogs at 0 or 40 mg/kg/day, and to 3 males and 3 female dogs at 2 or 10 mg/kg/day. Mortality, clinical observations, body weight, food consumption, clinical pathology, gross necropsy and microscopic examination of selected tissues, and toxicokinetics were evaluated. Rats or dogs were fasted overnight prior to blood collection for measurement of clinical pathology parameters (including AST and ALT) at the end of 14 days (rats) or 4 weeks (dogs) of dosing. Histology slides (hematoxylin and eosin staining and Mason's Trichrome staining) of the liver tissues were prepared and evaluated microscopically. The quantification of JNJ-1 was conducted using a qualified liquid chromatographic-triple quadrupole mass spectrometric (LC-MS/MS) procedure."}, "[2]": {"assay": "Repeat-dose toxicity study of JNJ-1 in dogs", "assay_type": "in vivo", "details": "dog study", "experimental": "as §1"}, "[3]": {"assay": "Phase I dose-escalating study, clinical chemistry (ALT, AST)", "assay_type": "in vivo, human", "details": "Phase I clinical trial", "experimental": "A double-blind, placebo-controlled, randomized, dose-escalating, sequential group design was conducted in 2 Parts. Subjects received daily doses of JNJ-28312141 or placebo for a total of 2 weeks (the first dose on Day 1 and then daily on Days 3 to 14). Part 1 included 5 cohorts of healthy male or female subjects. In Part 2 of the study, 2 cohorts of postmenopausal women (PMW) were enrolled. Within each cohort of 12 subjects, 9 subjects were randomized to JNJ-1, and 3 subjects were randomized to placebo. Dose escalation only occurred after the Sponsor and the Investigator had performed a satisfactory review of the preliminary safety data including those obtained on the post-study follow up visit (anytime between Days 30 to 32), and of the drug concentration and PK data (if available) at the current dose level. In addition to efficacy endpoints, and pharmacokinetics, an assessment of safety included measurement of clinical chemistry parameters, including ALT and AST."}, "Kupffer cells": {"tested_on": "Kupffer cells", "assay": "Kupffer cell count (CD68-positive cells) in human chips", "assay_type": "cell-based", "details": "human quadruple-cell chips", "experimental": "Microfluidic devices seeded with liver cells and static sandwich plate cultures were fixed with 4% paraformaldehyde for 15 minutes at room temperature, washed with PBS, and permeabilized (saponin 1% with 10% serum in PBS). Blocking and incubation with the primary antibodies (overnight in PBS containing 1% BSA or PBS containing 10% serum and 1% BSA) was followed by a two-hour incubation with secondary antibodies (Cell Signaling, Danvers, Mass., USA) in the same blocking buffer. Immunostaining was performed with specific primary antibodies (anti-MRP2, anti-stabilin-1, anti-BSEP, anti-α-SMA, anti-CD68; Abcam, Cambridge, Mass., USA) and images were acquired with either an Olympus fluorescence microscope (IX83) or Zeiss confocal microscope (AxiovertZ1 LSM880).\nThe number of CD68- or α-SMA-positive cells in the vascular channel in each group was counted in each field of view ([…]) and quantified."}, "[4]": {"tested_on": "microfluidic devices seeded with human liver cells", "assay": "Cytokine release (IL-6, MCP-1, IP-10) from the vascular channel of human chips", "assay_type": "cell-based", "details": "human quadruple-cell chips", "experimental": "Cytokines: Release of IL-6, MCP-1, and IP-10 from the vascular channel was quantified using U-PLEX biomarker human assays (Meso Scale Diagnostics, Rockville, Md., USA) and the assays were performed according to the protocol provided by the vendor."}, "[5]": {"tested_on": "microfluidic devices seeded with dog liver cells", "assay": "Albumin secretion, microfluidic devices seeded with dog liver cells", "assay_type": "cell-based", "details": "Canis lupus familiaris, 168 h; dual-cell dog chips, daily administration 1-100 μM, 7 days; read-out: IC50, decrease in albumin secretion", "source_text": "(§2) Prior to cell seeding, microfluidic devices, in this case S-1 Chips (Emulate, Inc. Boston, Mass., USA), were functionalized using Emulate's proprietary protocols and reagents (ERT™), including those described herein. After surface functionalization, both channels of the microfluidic device were coated with species-specific extracellular matrices (ECM). For the human bound microfluidic device, a mixture of collagen type I (Corning, Corning, N.Y., USA) and fibronectin, e.g. bovine, (Gibco) was used; for the rat bound microfluidic devices a mixture of collagen type IV, e.g. human placenta, (Sigma-Aldrich, St. Louis, Mo., USA) and fibronectin (Gibco) was used; for the dog bound microfluidic devices a mixture of collagen I (Corning), collagen type IV (Sigma-Aldrich), and fibronectin (Gibco) was used. […] For the dual-cell culture model (hepatocytes and endothelial cells), the LSECs were seeded at a concentration of 2-4 million cells/mL in the lower vascular channel. […] Albumin secretion from the upper channel was quantified using ELISA kits for human, rat, and dog models effluent samples (human and rat: Abcam; dog: Immunology Consultants Laboratory, Inc., Portland, Oreg., USA) and the assays were performed according to the protocol provided by each vendor."}, "[6]": {"tested_on": "microfluidic devices seeded with rat liver cells", "assay": "Albumin secretion / hepatocyte function, microfluidic devices seeded with rat liver cells", "assay_type": "cell-based", "details": "Hepatocyte, 168 h; dual-cell rat chips, daily administration 1-100 μM, 7 days; read-out: IC50, decrease in albumin secretion", "source_text": "as §2"}, "[7]": {"tested_on": "3D human spheroid hepatic cultures", "details": "compared with human chip IC50; cited from earlier work"}, "BSEP": {"target": "T1, BSEP (Homo sapiens, UniProt O95342)", "T1 construct": "Primary rat, dog or human hepatocytes were cultured in the upper parenchymal channel; endogenous in cells; host or cells: primary human hepatocytes in a microfluidic Liver-Chip, co-cultured with LSECs", "T1 sequence (O95342 whole entry)": "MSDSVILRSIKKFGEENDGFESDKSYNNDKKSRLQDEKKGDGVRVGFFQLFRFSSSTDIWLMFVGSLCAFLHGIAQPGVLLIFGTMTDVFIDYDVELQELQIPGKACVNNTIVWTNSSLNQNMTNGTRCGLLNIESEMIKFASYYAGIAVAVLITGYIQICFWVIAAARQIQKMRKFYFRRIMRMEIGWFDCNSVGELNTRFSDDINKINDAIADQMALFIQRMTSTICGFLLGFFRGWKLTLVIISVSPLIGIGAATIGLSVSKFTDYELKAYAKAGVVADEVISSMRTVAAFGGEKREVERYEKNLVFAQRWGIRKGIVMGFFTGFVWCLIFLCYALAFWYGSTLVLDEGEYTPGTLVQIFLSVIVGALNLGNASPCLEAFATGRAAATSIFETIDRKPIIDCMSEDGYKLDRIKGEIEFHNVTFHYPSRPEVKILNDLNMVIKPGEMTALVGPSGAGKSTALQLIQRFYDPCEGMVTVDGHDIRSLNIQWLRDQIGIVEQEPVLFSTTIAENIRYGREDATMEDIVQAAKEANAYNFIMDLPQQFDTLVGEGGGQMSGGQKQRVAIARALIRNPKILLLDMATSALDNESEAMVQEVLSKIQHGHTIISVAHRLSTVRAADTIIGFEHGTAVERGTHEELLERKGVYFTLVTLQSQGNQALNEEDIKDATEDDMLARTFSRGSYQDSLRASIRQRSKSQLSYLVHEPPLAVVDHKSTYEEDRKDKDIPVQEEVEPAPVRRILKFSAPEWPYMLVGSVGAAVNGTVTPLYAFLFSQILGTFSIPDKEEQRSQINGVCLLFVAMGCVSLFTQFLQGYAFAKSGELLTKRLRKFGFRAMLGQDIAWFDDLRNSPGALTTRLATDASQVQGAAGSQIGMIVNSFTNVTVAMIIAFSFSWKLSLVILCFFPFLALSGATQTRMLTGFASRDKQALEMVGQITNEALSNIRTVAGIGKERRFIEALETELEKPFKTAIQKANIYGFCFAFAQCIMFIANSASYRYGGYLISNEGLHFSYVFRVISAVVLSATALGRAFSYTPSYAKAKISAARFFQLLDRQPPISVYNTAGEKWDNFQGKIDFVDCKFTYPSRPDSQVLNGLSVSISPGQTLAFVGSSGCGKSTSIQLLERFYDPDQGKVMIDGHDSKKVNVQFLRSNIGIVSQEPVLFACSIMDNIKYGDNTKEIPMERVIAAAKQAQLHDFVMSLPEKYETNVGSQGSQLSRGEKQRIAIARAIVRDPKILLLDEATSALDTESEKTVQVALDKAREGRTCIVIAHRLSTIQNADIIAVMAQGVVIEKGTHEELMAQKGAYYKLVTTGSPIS", "assay": "CLF efflux (BSEP activity) in human hepatocytes on chip", "assay_type": "cell-based", "details": "30 μM", "excerpt": "Microfluidic devices seeded with liver cells were stained in the upper channel with 5(6)-Carboxy-2′,7′-dichlorofluorescein diacetate (CDFDA) (ThermoFisher) to visualize bile canaliculi and MRP2 activity, cholyl-lysyl-fluorescein (CLF) (Corning) to visualize bile canaliculi and BSEP activity, Nile red (ThermoFisher) or AdipoRed (Lonza) to visualize lipid droplet accumulation, Tetramethylrhodamine, methyl ester (TMRM) (ThermoFisher) to visualize active mitochondria, and CellROX® (ThermoFisher) to visualize cellular oxidative stress. Each staining solution was prepared in blank medium or compound dosing medium and added to the upper channel, incubated for 15 minutes at 37° C., and washed three times with medium. The stained microfluidic devices were imaged using a specific filter, and were de-blurred with Olympus cellSens software. Using ImageJ-Fiji, the fluorescent channel images were histogram adjusted to remove background, followed by fluorescence quantification using the Integrated Density calculation function.\nBoth a brightfield and a fluorescence image was taken from each field of view. […] These criteria were determined empirically using a small test set of images and then applied to images for the analysis. […] The data for treated and control samples were quantified by computing the area percentage of CLF-labeled bile canaliculi within each field of view (FOV)."}, "[8]": {"details": "human plasma; cited from earlier work"}, "[9]": {"tested_on": "microfluidic devices seeded with human liver cells", "assay": "Albumin secretion, microfluidic devices seeded with human liver cells", "assay_type": "cell-based", "source_text": "Prior to cell seeding, microfluidic devices, in this case S-1 Chips (Emulate, Inc. Boston, Mass., USA), were functionalized using Emulate's proprietary protocols and reagents (ERT™), including those described herein. After surface functionalization, both channels of the microfluidic device were coated with species-specific extracellular matrices (ECM). For the human bound microfluidic device, a mixture of collagen type I (Corning, Corning, N.Y., USA) and fibronectin, e.g. bovine, (Gibco) was used; for the rat bound microfluidic devices a mixture of collagen type IV, e.g. human placenta, (Sigma-Aldrich, St. Louis, Mo., USA) and fibronectin (Gibco) was used; for the dog bound microfluidic devices a mixture of collagen I (Corning), collagen type IV (Sigma-Aldrich), and fibronectin (Gibco) was used. […] For the dual-cell culture model (hepatocytes and endothelial cells), the LSECs were seeded at a concentration of 2-4 million cells/mL in the lower vascular channel. […] After cell seeding, the upper channel of the microfluidic device was maintained in William's E Medium (WEM) containing Glutamax (Gibco), ITS+(Corning), dexamethasone (Sigma-Aldrich), ascorbic acid (Sigma-Aldrich), fetal bovine serum (FBS) (Sigma-Aldrich), and Penicillin/Streptomycin (Sigma-Aldrich). The vascular channel of the microfluidic device was maintained with species-specific endothelial media (Emulate, Inc.). Two days after seeding, the microfluidic devices were connected to the Human Emulation System™ (Emulate, Inc.), as described in part herein, and both of the microfluidic device channels were perfused at 30 μL/hr to provide a continuous supply of fresh media for the duration of the experiments. Albumin secretion from the upper channel was quantified using ELISA kits for human, rat, and dog models effluent samples (human and rat: Abcam; dog: Immunology Consultants Laboratory, Inc., Portland, Oreg., USA) and the assays were performed according to the protocol provided by each vendor."}, "[10]": {"tested_on": "microfluidic devices seeded with human liver cells", "assay": "APAP metabolite quantification by LC-MS in human chips", "assay_type": "in vitro ADME", "details": "daily 3 mM for 20 days, flow 10 μL/hr", "source_text": "After APAP exposure to microfluidic devices seeded with human liver cells, effluent metabolite levels were quantified using LC-MS analysis. […] APAP-Glucuronide (APAP-Glu), the primary metabolite of APAP, was not quantified using a standard curve. Rather, the LC-MS peak area of APAP-Glu was reported corresponding to each sample."}, "[11]": {"tested_on": "primary human hepatocytes and liver sinusoidal endothelial cells (LSECs)", "assay": "High-content confocal imaging of microfluidic devices seeded with liver cells", "assay_type": "cell-based", "details": "10 μM, six hours of exposure", "experimental": "Microfluidic devices were obtained from Emulate Inc. (USA) and are illustrated in FIG. 1A. The channels of the microfluidic devices were coated with a proprietary mixture of extracellular matrix and were incubated overnight at 37° C. Primary human cryopreserved hepatocytes sourced from ThermoFisher, as one example, were seeded in the top channel at a density of 3.5×10^6 cells/mL, and were left to form an attached monolayer at 37° C. in a humidified incubator with a 95%/5% ratio of air to CO2.\nTwenty-four hours after seeding, the hepatocyte monolayer was overlaid with Matrigel Matrix sourced from Corning, USA. Primary human cryopreserved liver sinusoidal endothelial cells, also known as LSECs, were seeded on the bottom channel of the microfluidic device at a density of 2 to 4×10^6 cells/mL in endothelial medium, also known as CSC medium or Base LSEC Culture Medium; CSC basal Medium plus Culture-Boost (2%), Cell Systems, and Pen/Strep (1%), Sigma. In some embodiments, endothelial cells are cultured in Complete LSEC Culture Medium, Base LSEC Culture Medium plus 10% FBS.\nMicrofluidic devices were inverted for 2 hours to allow attachment underneath the membrane, and then inverted back before being connected to a platform containing a pneumatic pump source from Emulate Inc. Media was flowed through both channels at a flow rate of 30 μL/hour and was refreshed every other day.\nThe effects of agents, such as staurosporine on cell phenotype was evaluated. Microfluidic devices were perfused with staurosporine (0 and 10 μM) for 6 hours at a flow rate of 30 μL/hour. A compound was also tested in the microfluidic devices seeded with liver cells. The microfluidic devices seeded with liver cells were perfused with the compound at the concentrations of 0.1 μM, 1 μM or 10 μM for 3 hours, after which the compound was removed from the media flow. The protocol was chosen as it was analogous to how the compound has been evaluated in vivo. […]"}}, "data": [{"molecule": "CN(C)CC(=O)N1CCC(c2ccc(NC(=O)c3nc(C#N)c[nH]3)c(C3=CCCCC3)c2)CC1", "note": "[JNJ compound]", "values": [{"measurement": "microscopic changes in the liver", "setting": "[1]", "value": "without any correlative microscopic changes"}, {"measurement": "transaminases", "setting": "[1]", "value": "Dose-related elevation"}, {"measurement": "microscopic changes in the liver", "setting": "[2]", "value": "without any correlative microscopic changes"}, {"measurement": "transaminases", "setting": "[2]", "value": "Dose-related elevation"}, {"measurement": "healthy subjects with elevation of alanine aminotransferase (ALT)", "setting": "[3]", "value": "3/12"}, {"measurement": "healthy subjects with elevation of aspartate aminotransferase (AST)", "setting": "[3]", "value": "7/12"}, {"measurement": "Kupffer cells (CD68-positive cells)", "setting": "Kupffer cells", "value": "decreased number"}, {"measurement": "interleukin 6 (IL-6) in the vascular channel", "setting": "[4]", "value": "dose-dependent decrease"}, {"measurement": "monocyte chemoattractant protein-1 (MCP-1) in the vascular channel", "setting": "[4]", "value": "dose-dependent decrease"}]}, {"molecule": "COc1ccccc1Oc1c(NS(=O)(=O)c2ccc(C(C)(C)C)cc2)nc(-c2ncccn2)nc1OCCO", "note": "[bosentan]", "values": [{"measurement": "IC50", "setting": "[5]", "value": 30, "unit": "µM"}, {"measurement": "IC50", "setting": "[6]", "value": "> 100", "unit": "µM"}, {"measurement": "IC50 in 3D human spheroid hepatic cultures relative to human chip", "setting": "[7]", "value": "more than 10 fold higher"}, {"measurement": "intracellular accumulation of CLF", "setting": "BSEP", "value": "intracellular accumulation"}, {"measurement": "reduction in CLF efflux", "setting": "BSEP; co-treatment with CLF", "value": "> 50", "unit": "%"}, {"measurement": "plasma concentration (Cmax) associated with DILI in humans", "setting": "[8]", "value": 7.4, "unit": "µM"}, {"measurement": "IC50", "setting": "[9]; 72 h, dual-cell human chips, daily administration 1-100 μM, 3 days, read-out: IC50, decrease in albumin secretion", "value": 10, "unit": "µM"}]}, {"molecule": "CC(=O)Nc1ccc(O)cc1", "note": "[APAP, acetaminophen]", "values": [{"measurement": "APAP glucuronide in parenchymal and vascular channels", "setting": "[10]", "value": "significant amounts"}, {"measurement": "albumin synthesis / secretion", "setting": "[9]; quadruple-cell human chips, 7 days", "value": "decreased"}]}, {"molecule": "CN[C@@H]1C[C@H]2O[C@@](C)([C@@H]1OC)n1c3ccccc3c3c4c(c5c6ccccc6n2c5c31)C(=O)NC4", "note": "[staurosporine]", "values": [{"measurement": "LSECs (cell number)", "setting": "[11]", "value": "complete loss of LSECs"}, {"measurement": "apoptotic marker (CC3)", "setting": "[11]", "value": "marked increases"}, {"measurement": "hepatocyte cell number", "setting": "[11]", "value": "little if any effect"}]}]}
